Where two headings read alike, the source gives them in different places.
Molecular target: human LPAR1 (Homo sapiens, UniProt Q92633)
Assay: In vitro functional assay of lysophosphatidic acid receptor 1 activity (calcium flux)
Format: cell-based
[1] = B103 cells stably expressing human LPAR1, calcium flux (Fluo-4 NW) after lysophosphatidic acid (18:1) at EC80, 100 pM to 10 μM, read-out: LPAR1 IC50

Chain of human LPAR1 (Q92633 whole entry): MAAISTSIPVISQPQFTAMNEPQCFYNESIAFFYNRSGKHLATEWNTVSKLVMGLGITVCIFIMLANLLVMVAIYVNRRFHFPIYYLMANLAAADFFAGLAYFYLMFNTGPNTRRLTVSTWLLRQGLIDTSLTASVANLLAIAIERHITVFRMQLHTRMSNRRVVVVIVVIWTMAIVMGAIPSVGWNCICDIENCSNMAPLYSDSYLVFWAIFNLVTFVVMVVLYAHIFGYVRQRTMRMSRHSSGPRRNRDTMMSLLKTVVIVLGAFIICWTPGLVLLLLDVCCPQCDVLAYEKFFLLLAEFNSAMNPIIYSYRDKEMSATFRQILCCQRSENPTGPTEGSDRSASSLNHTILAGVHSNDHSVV

SMILES | IC50 [1] [nM] | IC50 (LPAR1 IC50) [nM]
Cc1cc(OC(F)F)c(NC(=O)N(c2ccccc2C(C)C)[C@H]2CC[C@H](C(=O)O)CC2)cn1 [Example 157, trans-4-(3-(4-(difluoromethoxy)-6-methylpyridin-3-yl)-1-(2-isopropylphenyl)ureido)cyclohexane-1-carboxylic acid] | 10 to 100 | 
CC(C)c1ccccc1N(C(=O)Nc1ccc(Cl)c(F)c1)[C@H]1CC[C@H](C(=O)O)CC1 [Example 158, trans-4-(3-(4-chloro-3-fluorophenyl)-1-(2-isopropylphenyl)ureido)cyclohexane-1-carboxylic acid] | 10 to 100 | 
COC(=O)CC1CC(N(C(=O)Nc2ccc(C)nc2OC(F)F)c2ccccc2C(C)C)C1 (stereo not shown) [Example 159, methyl 2-(3-(3-(2-(difluoromethoxy)-6-methylpyridin-3-yl)-1-(2-isopropylphenyl)ureido)cyclobutyl)acetate] | 100 to 1000 | 
Cc1ccc(NC(=O)N(c2ccccc2C(C)C)C2CC(CC(=O)O)C2)c(OC(F)F)n1 (stereo not shown) [Example 160, 2-(3-(3-(2-(difluoromethoxy)-6-methylpyridin-3-yl)-1-(2-isopropylphenyl)ureido)cyclobutyl)acetic acid] | < 10 | 
Cc1ccc(NC(=O)N(c2ccccc2C(C)C)[C@H]2C[C@H](C(=O)O)C2)c(OC(F)F)n1 [Example 161, trans-3-(3-(2-(difluoromethoxy)-6-methylpyridin-3-yl)-1-(2-isopropylphenyl)ureido)cyclobutane-1-carboxylic acid] | 10 to 100 | 
Cc1ccc(NC(=O)N(c2ccccc2C(C)C)[C@H]2C[C@@H](C(=O)O)C2)c(OC(F)F)n1 [Example 162, cis-3-(3-(2-(difluoromethoxy)-6-methylpyridin-3-yl)-1-(2-isopropylphenyl)ureido)cyclobutane-1-carboxylic acid] | 100 to 1000 | 
COC(=O)[C@H]1C[C@H](N(C(=O)Nc2cc(F)c(F)cc2OC(F)F)c2ccccc2C(C)C)C1 [Example 163, methyl (1r,3r)-3-(3-(2-(difluoromethoxy)-4,5-difluorophenyl)-1-(2-isopropylphenyl)ureido)cyclobutane-1-carboxylate] | > 1000 | 
CC(C)c1ccccc1N(C(=O)Nc1cc(F)c(F)cc1OC(F)F)[C@H]1C[C@H](C(=O)O)C1 [Example 164, trans-3-(3-(2-(difluoromethoxy)-4,5-difluorophenyl)-1-(2-isopropylphenyl)ureido)cyclobutane-1-carboxylic acid] | 10 to 100 | 
Cc1ccc(NC(=O)N(c2ccccc2C(C)C)[C@H]2CC[C@H](CC(=O)O)CC2)c(OC(F)F)n1 [Example 165, 2-((1r,4r)-4-(3-(2-(difluoromethoxy)-6-methylpyridin-3-yl)-1-(2-isopropylphenyl)ureido)cyclohexyl)acetic acid] | < 10 | 
Cc1ccc(NC(=O)N(c2ccccc2C(C)C)[C@H]2CC[C@@H](CC(=O)O)CC2)c(OC(F)F)n1 [Example 166, 2-((1s,4s)-4-(3-(2-(difluoromethoxy)-6-methylpyridin-3-yl)-1-(2-isopropylphenyl)ureido)cyclohexyl)acetic acid] | 10 to 100 | 
Cc1ccc(NC(=O)N(CC23CCC(C(=O)O)(CC2)CC3)c2ccccc2C(C)C)c(OC(F)F)n1 [Example 167] | 10 to 100 | 
Cc1ccc(NC(=O)N(CC23CC(C(=O)O)(CO2)C3)c2ccccc2C(C)C)c(OC(F)F)n1 [Example 168] | 10 to 100 | 
COC(=O)C1CC(CN(C(=O)Nc2ccc(C)nc2OC(F)F)c2ccccc2C(C)C)C1 (stereo not shown) [Example 169] | 10 to 100 | 
Cc1ccc(NC(=O)N(CC2CC(C(=O)O)C2)c2ccccc2C(C)C)c(OC(F)F)n1 (stereo not shown) [Example 170] | < 10 | 
Cc1ccc(NC(=O)N(C[C@H]2CC[C@H](C(=O)O)CC2)c2ccccc2C(C)C)c(OC(F)F)n1 [Example 171] | 10 to 100 | 
Cc1ccc(NC(=O)N(C[C@H]2CC[C@@H](C(=O)O)CC2)c2ccccc2C(C)C)c(OC(F)F)n1 [Example 172] | 10 to 100 | 
Cc1ccc(NC(=O)N(CC23CC(C(=O)O)(C2)C3)c2ccccc2C(C)C)c(OC(F)F)n1 [Example 173] | 10 to 100 | 
Cc1ccc(NC(=O)N(c2ccccc2C(C)C)C2CN(CCC3(C(=O)O)CCC3)C2)c(OC(F)F)n1 [Example 174] | 100 to 1000 | 
CC(C)c1ccccc1N(C(=O)Nc1ncc(Cl)cc1OC(F)F)C1CC(CC(=O)O)C1 (stereo not shown) [Example 175, 2-(3-(3-(5-chloro-3-(difluoromethoxy)pyridin-2-yl)-1-(2-isopropylphenyl)ureido)cyclobutyl)acetic acid] | < 10 | 
CC(C)c1ccccc1N(C(=O)Nc1ncc(Br)cc1OC(F)F)C1CC(CC(=O)O)C1 (stereo not shown) [Example 176] | 10 to 100 | 
COC(=O)C1CC(N(C(=O)Nc2ncc(Br)cc2OC(F)F)c2ccccc2C(C)C)C1 (stereo not shown) [Example 177] | 10 to 100 | 
Cc1ccc(NC(=O)N(c2ccccc2C(C)C)[C@H]2C[C@H](O)C2)c(OC(F)F)n1 [Example 181] | 10 to 100 | 
Cc1ccc(NC(=O)N(c2ccccc2C(C)C)[C@H]2C[C@@H](O)C2)c(OC(F)F)n1 [Example 182] | 100 to 1000 | 

SMILES | IC50 [1] [nM] | IC50 (LPAR1 IC50) [nM]
CC(=O)N1CCC(N(C(=O)Nc2ncc(Br)nc2OC(F)F)c2ccccc2C(C)C)CC1 [Example 184, 1-(1-acetylpiperidin-4-yl)-3-(5-bromo-3-(difluoromethoxy)pyrazin-2-yl)-1-(2-isopropylphenyl)urea] |  | 100 to 1000
COc1nc(C#N)ccc1NC(=O)N(c1ccccc1C(C)C)C1CCN(C(C)=O)CC1 [Example 185, 1-(1-acetylpiperidin-4-yl)-3-(6-cyano-2-methoxypyridin-3-yl)-1-(2-isopropylphenyl)urea] |  | 100 to 1000
Cc1ccc(NC(=O)N(c2ccccc2C(C)C)[C@H]2C[C@H](C(N)=O)C2)c(OC(F)F)n1 [Example 186, (1r,3r)-3-(3-(2-(difluoromethoxy)-6-methylpyridin-3-yl)-1-(2-isopropylphenyl)ureido)cyclobutane-1-carboxamide] | > 1000 | 
Cc1ccc(NC(=O)N(c2ccccc2C(C)C)[C@H]2C[C@@H](C(N)=O)C2)c(OC(F)F)n1 [Example 187] | > 1000 | 
Cc1ccc(NC(=O)N(c2ccccc2C(C)C)[C@H]2C[C@H](CC(N)=O)C2)c(OC(F)F)n1 [Example 188] | 100 to 1000 | 
Cc1ccc(NC(=O)N(c2ccccc2C(C)C)[C@H]2C[C@@H](CC(N)=O)C2)c(OC(F)F)n1 [Example 189] | 100 to 1000 | 
CNC(=O)CC1CC(N(C(=O)Nc2ccc(C)nc2OC(F)F)c2ccccc2C(C)C)C1 (stereo not shown) [Example 190, 2-(3-(3-(2-(difluoromethoxy)-6-methylpyridin-3-yl)-1-(2-isopropylphenyl)ureido)cyclobutyl)-N-methylacetamide] | 100 to 1000 | 
Cc1ccc(NC(=O)N(c2ccccc2C(C)C)[C@H]2C[C@H](Cc3nnn[nH]3)C2)c(OC(F)F)n1 [Example 191, 1-((1r,3r)-3-((1H-tetrazol-5-yl)methyl)cyclobutyl)-3-(2-(difluoromethoxy)-6-methylpyridin-3-yl)-1-(2-isopropylphenyl)urea] | 10 to 100 | 
Cc1ccc(NC(=O)N(c2ccccc2C(C)C)[C@H]2C[C@@H](Cc3nnn[nH]3)C2)c(OC(F)F)n1 [Example 192] | 10 to 100 | 
Cc1ccc(NC(=O)N(c2ccccc2C(C)C)[C@H]2C[C@@H](CO)C2)c(OC(F)F)n1 [Example 193, 3-(2-(difluoromethoxy)-6-methylpyridin-3-yl)-l-((1 s,3s)-3-(hydroxymethyl)cyclobutyl)-1-(2-isopropylphenyl)urea] | 100 to 1000 | 
Cc1ccc(NC(=O)N(c2ccccc2C(C)C)C2CC(C=O)C2)c(OC(F)F)n1 (stereo not shown) [Example 194, 3-(2-(difluoromethoxy)-6-methylpyridin-3-yl)-1-(3-formylcyclobutyl)-1-(2-isopropylphenyl)urea] | 100 to 1000 | 
Cc1ccc(NC(=O)N(c2ccccc2C(C)C)C2CC(=O)C2)c(OC(F)F)n1 [Example 195] | 10 to 100 | 
Cc1ccc(NC(=O)N(c2ccccc2C(C)C)C2CC(O)(C(F)(F)F)C2)c(OC(F)F)n1 (stereo not shown) [Example 196, 3-(2-(difluoromethoxy)-6-methylpyridin-3-yl)-1-(3-hydroxy-3-(trifluoromethyl)cyclobutyl)-1-(2-isopropylphenyl)urea] | > 1000 | 
CC(=O)N1CCC(N(C(=O)Nc2ccc(C)[n+]([O-])c2OC(F)F)c2ccccc2C(C)C)CC1 [Example 197, 3-(3-(1-acetylpiperidin-4-yl)-3-(2-isopropylphenyl)ureido)-2-(difluoromethoxy)-6-methylpyridine 1-oxide] |  | > 1000
CC(=O)N1CCC(N(C(=O)Nc2cc(F)c(Br)nc2OC(F)F)c2ccccc2C(C)C)CC1 [Example 217] |  | 10 to 100
CC(=O)N1CCC(N(C(=O)Nc2cc(F)c(C)nc2OC(F)F)c2ccccc2C(C)C)CC1 [Example 218, 1-(1-acetylpiperidin-4-yl)-3-(2-(difluoromethoxy)-5-fluoro-6-methylpyridin-3-yl)-1-(2-isopropylphenyl)urea] |  | 10 to 100
Cc1nc(OC(F)F)c(NC(=O)N(c2ccccc2C(C)C)[C@H]2CC[C@H](C(=O)O)CC2)cc1F [Example 221, (1r,4r)-4-(3-(2-(difluoromethoxy)-5-fluoro-6-methylpyridin-3-yl)-1-(2-isopropylphenyl)ureido)cyclohexane-1-carboxylic acid] | < 10 | 
Cc1nc(OC(F)F)c(NC(=O)N(c2ccccc2C(C)C)[C@H]2CC[C@@H](CC(=O)O)CC2)cc1F [Example 222] | 10 to 100 | 
CC(C)c1ccccc1N(C(=O)Nc1cc(F)c(C2CC2)nc1OC(F)F)[C@H]1CC[C@H](C(=O)O)CC1 [Example 223] | 10 to 100 | 
Cc1ccc(NC(=O)N(CC2CC(CC(=O)O)C2)c2ccccc2C(C)C)c(OC(F)F)n1 (stereo not shown) [Example 224] | < 10 | 
COc1nc(OC(F)F)c(NC(=O)N(c2ccccc2C(C)C)C2CCN(C(C)=O)CC2)cc1F [Example 225, 1-(1-acetylpiperidin-4-yl)-3-(2-(difluoromethoxy)-5-fluoro-6-methoxypyridin-3-yl)-l-(2-isopropylphenyl)urea] |  | 10 to 100
COC(=O)c1cc(Br)cnc1NC(=O)N(c1ccccc1C(C)C)C1CCN(C(C)=O)CC1 [Example 226] |  | 100 to 1000
Cc1cc(OC(F)F)c(NC(=O)N(C[C@H]2C[C@H](C(=O)O)C2)c2ccccc2C(C)C)cn1 [Example 227] | 10 to 100 | 

Reference: patent publication US20250034110A1, “LPAR1 ANTAGONISTS AND USES THEREOF” (Pipeline Therapeutics, Inc., priority 2021, published 2025)
